Reference: patent US9346809B2 (LEO PHARMA A/S, priority 2009, dated 2016)

Legend:
Assay type in all cases: biochemical
[1] = target: T1, JAK2 (catalytic domain, His-tag) (Homo sapiens, UniProt O60674); test: JAK kinase assay (HTRF, phosphorylation of TK substrate-biotin), JAK2; details: ATP at Km (4 μM); read-out: JAK2 kinase inhibitory activity (EC50 indicator)
T1 construct: All four purified enzymes contain only the catalytic domain; His (N); purchased Carna Biosciences, Inc; host or cells: baculovirus expression system
T1 sequence (O60674 849-1124 limits assumed): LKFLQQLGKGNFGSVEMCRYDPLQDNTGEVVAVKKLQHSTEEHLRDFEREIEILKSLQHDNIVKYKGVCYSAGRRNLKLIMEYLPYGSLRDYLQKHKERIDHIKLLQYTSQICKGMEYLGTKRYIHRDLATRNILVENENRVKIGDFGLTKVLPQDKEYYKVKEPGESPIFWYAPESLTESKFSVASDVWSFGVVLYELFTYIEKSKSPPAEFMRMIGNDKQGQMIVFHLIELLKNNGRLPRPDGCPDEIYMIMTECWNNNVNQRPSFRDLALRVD
How it was run: (§1)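 Catalytic-domain kinases phosphorylated 1 μM biotin-TK substrate at ATP Km (JAK1 7 μM, JAK2 4 μM, JAK3 2 μM, TYK2 13 μM) in Hepes pH 7.0 with DTT and MgCl2, for 20-30 min at RT; JAK1 and TYK2 also had 50 nM SEB. Detection was by HTRF (streptavidin-XL665/Cryptate antibody) overnight, giving EC50.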

[2] = target: T2, JAK3 (catalytic domain, His-tag) (Homo sapiens, UniProt P52333); test: JAK kinase assay (HTRF, phosphorylation of TK substrate-biotin), JAK3; details: ATP at Km (2 μM); read-out: JAK3 kinase inhibitory activity (EC50 indicator)
T2 construct: All four purified enzymes contain only the catalytic domain; His (N); purchased Carna Biosciences, Inc; host or cells: baculovirus expression system
T2 sequence (P52333 822-1111 limits assumed): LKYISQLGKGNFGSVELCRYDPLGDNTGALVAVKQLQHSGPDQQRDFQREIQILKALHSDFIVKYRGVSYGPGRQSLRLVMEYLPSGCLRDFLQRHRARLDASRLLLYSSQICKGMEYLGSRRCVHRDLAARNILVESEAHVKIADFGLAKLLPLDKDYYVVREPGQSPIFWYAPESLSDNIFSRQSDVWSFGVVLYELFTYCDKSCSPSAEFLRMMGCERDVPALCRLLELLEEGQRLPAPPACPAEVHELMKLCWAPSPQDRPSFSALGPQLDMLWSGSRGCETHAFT
How it was run: as §1

[3] = target: T3, TYK2 (aa 871-1187, catalytic domain, GST-tag) (Homo sapiens, UniProt P29597); test: JAK kinase assay (HTRF, phosphorylation of TK substrate-biotin), TYK2; details: ATP at Km (13 μM); read-out: TYK2 kinase inhibitory activity (EC50 indicator)
T3 construct: JAK1 (aa 850-1154) and TYK2 (aa 871-1187) are expressed with an N-terminally fused GST-tag; GST (N); purchased Carna Biosciences, Inc; host or cells: baculovirus expression system
T3 sequence (P29597 871-1187): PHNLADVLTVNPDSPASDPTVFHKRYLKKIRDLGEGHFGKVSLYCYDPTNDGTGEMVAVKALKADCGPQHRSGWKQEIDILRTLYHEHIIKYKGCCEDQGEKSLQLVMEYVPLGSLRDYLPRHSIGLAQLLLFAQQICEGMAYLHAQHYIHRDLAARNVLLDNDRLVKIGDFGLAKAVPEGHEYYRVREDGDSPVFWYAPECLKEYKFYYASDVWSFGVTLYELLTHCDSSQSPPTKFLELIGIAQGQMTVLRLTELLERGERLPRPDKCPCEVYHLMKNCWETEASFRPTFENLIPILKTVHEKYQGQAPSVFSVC
How it was run: as §1

[4] = target: T4, JAK1 (aa 850-1154, catalytic domain, GST-tag) (Homo sapiens, UniProt P23458); test: JAK kinase assay (HTRF, phosphorylation of TK substrate-biotin), JAK1; details: ATP at Km (7 μM); read-out: JAK1 kinase inhibitory activity (EC50 indicator)
T4 construct: JAK1 (aa 850-1154) and TYK2 (aa 871-1187) are expressed with an N-terminally fused GST-tag; GST (N); purchased Carna Biosciences, Inc; host or cells: baculovirus expression system
T4 sequence (P23458 850-1154): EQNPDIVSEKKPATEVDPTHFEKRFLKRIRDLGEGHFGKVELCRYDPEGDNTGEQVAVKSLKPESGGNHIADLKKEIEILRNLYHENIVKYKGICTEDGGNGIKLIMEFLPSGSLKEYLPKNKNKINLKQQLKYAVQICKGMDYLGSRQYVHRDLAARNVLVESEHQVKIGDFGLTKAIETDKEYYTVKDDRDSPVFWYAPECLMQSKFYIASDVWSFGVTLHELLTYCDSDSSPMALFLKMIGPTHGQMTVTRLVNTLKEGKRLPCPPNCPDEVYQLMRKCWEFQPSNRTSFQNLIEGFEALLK
How it was run: as §1

| SMILES | EC50 [1] [nM] | EC50 [2] [nM] | EC50 [3] [nM] | EC50 [4] [nM] |
| --- | --- | --- | --- | --- |
| O=C(C1Cc2ccccc21)N1C2CCC1CN(c1ncnc3[nH]ccc13)C2 (stereo not drawn) [Example 132, Bicyclo[4.2.0]octa-1(6),2,4-trien-7-yl-[3-(7H-pyrrolo[2,3-d]pyrimidin-4-yl)-3,8-diaza-bicyclo[3.2.1]oct-8-yl]-methanone] | 100 to 500 | 100 to 500 | > 500 | 100 to 500 |
| O=C1c2ccccc2CC1C(=O)N1C2CCC1CN(c1ncnc3[nH]ccc13)C2 (stereo not drawn) [Example 133, 2-[3-(7H-Pyrrolo[2,3-d]pyrimidin-4-yl)-3,8-diaza-bicyclo[3.2.1]octane-8-carbonyl]-indan-1-one] | 100 to 500 | > 500 | > 500 | > 500 |
| CS(=O)(=O)c1ccc(CC(=O)N2C3CCC2CN(c2ncnc4[nH]ccc24)C3)cc1 [Example 134, 2-(4-Methanesulfonyl-phenyl)-1-[3-(7H-pyrrolo[2,3-d]pyrimidin-4-yl)-3,8-diaza-bicyclo[3.2.1]oct-8-yl]-ethanone] | 100 to 500 | > 500 | > 500 | 100 to 500 |
| O=C([C@@H]1CCCc2ccccc21)N1C2CCC1CN(c1ncnc3[nH]ccc13)C2 [Example 137, [3-(7H-Pyrrolo[2,3-d]pyrimidin-4-yl)-3,8-diaza-bicyclo[3.2.1]oct-8-yl]-(1,2,3,4-tetrahydro-naphthalen-1-yl)-methanone] | 100 to 500 | > 500 | > 500 | > 500 |
| CC1CN(C(=O)c2cccc(C#N)c2)C2(CC2)CN1c1ncnc2[nH]ccc12 (stereo not drawn) [Example 145, 3-[6-Methyl-7-(7H-pyrrolo[2,3-d]pyrimidin-4-yl)-4,7-diaza-spiro[2.5]octane-4-carbonyl]-benzonitrile] | < 100 | 100 to 500 | 100 to 500 | < 100 |
| CC1CN(C(=O)Cc2cccc(C#N)c2)C2(CC2)CN1c1ncnc2[nH]ccc12 (stereo not drawn) [Example 146, 3-{2-[6-Methyl-7-(7H-pyrrolo[2,3-d]pyrimidin-4-yl)-4,7-diaza-spiro[2.5]oct-4-yl]-2-oxo-ethyl}-benzonitrile] | < 100 | 100 to 500 | > 500 | 100 to 500 |
| CC1CN(C(=O)Cc2ccc(C#N)cc2)C2(CC2)CN1c1ncnc2[nH]ccc12 (stereo not drawn) [Example 147, 4-{2-[6-Methyl-7-(7H-pyrrolo[2,3-d]pyrimidin-4-yl)-4,7-diaza-spiro[2.5]oct-4-yl]-2-oxo-ethyl}-benzonitrile] | < 100 | < 100 | < 100 | < 100 |
| CC1CN(C(=O)c2ccc(C#N)cc2)C2(CC2)CN1c1ncnc2[nH]ccc12 (stereo not drawn) [Example 148, 4-[6-Methyl-7-(7H-pyrrolo[2,3-d]pyrimidin-4-yl)-4,7-diaza-spiro[2.5]octane-4-carbonyl]-benzonitrile] | < 100 | 100 to 500 | > 500 | < 100 |
| CC1CN(C(=O)C2(C#N)CC2)C2(CC2)CN1c1ncnc2[nH]ccc12 (stereo not drawn) [Example 149, 1-[6-Methyl-7-(7H-pyrrolo[2,3-d]pyrimidin-4-yl)-4,7-diaza-spiro[2.5]octane-4-carbonyl]-cyclopropanecarbonitrile] | < 100 | 100 to 500 | 100 to 500 | < 100 |
| CC1CN(C(=O)CCC#N)C2(CC2)CN1c1ncnc2[nH]ccc12 (stereo not drawn) [Example 150, 4-[6-Methyl-7-(7H-pyrrolo[2,3-d]pyrimidin-4-yl)-4,7-diaza-spiro[2.5]oct-4-yl]-4-oxo-butyronitrile] | < 100 | < 100 | > 500 | < 100 |
| CC(=O)NCC(=O)N1CCN(c2ncnc3[nH]ccc23)CC12CC2 [Example 151, N-{2-Oxo-2-[7-(7H-pyrrolo[2,3-d]pyrimidin-4-yl)-4,7-diaza-spiro[2.5]oct-4-yl]-ethyl}-acetamide] | 100 to 500 | > 500 | > 500 | 100 to 500 |
| O=C(Cc1ccccc1)N1CCN(c2ncnc3[nH]ccc23)CC12CC2 [Example 152, 2-Phenyl-1-[7-(7H-pyrrolo[2,3-d]pyrimidin-4-yl)-4,7-diaza-spiro[2.5]oct-4-yl]-ethanone] | < 100 | < 100 | 100 to 500 | < 100 |
| O=C(CCc1ccccc1)N1CCN(c2ncnc3[nH]ccc23)CC12CC2 [Example 153, 3-Phenyl-1-[7-(7H-pyrrolo[2,3-d]pyrimidin-4-yl)-4,7-diaza-spiro[2.5]oct-4-yl]-propan-1-one] | < 100 | 100 to 500 | > 500 | < 100 |
| O=C(N1CCN(c2ncnc3[nH]ccc23)CC12CC2)C1(c2ccccc2)CC1 [Example 154, (1-Phenyl-cyclopropyl)-[7-(7H-pyrrolo[2,3-d]pyrimidin-4-yl)-4,7-diaza-spiro[2.5]oct-4-yl]-methanone] | < 100 | > 500 | > 500 | 100 to 500 |
| O=C(c1ccc(CO)cc1)N1CCN(c2ncnc3[nH]ccc23)CC12CC2 [Example 155, (4-Hydroxymethyl-phenyl)-[7-(7H-pyrrolo[2,3-d]pyrimidin-4-yl)-4,7-diaza-spiro[2.5]oct-4-yl]-methanone] | < 100 | 100 to 500 | 100 to 500 | < 100 |

Results, then the molecule that gave them:

| EC50 [1] [nM] | EC50 [2] [nM] | EC50 [3] [nM] | EC50 [4] [nM] | SMILES |
| --- | --- | --- | --- | --- |
| < 100 | 100 to 500 | > 500 | < 100 | CS(=O)(=O)c1cccc(C(=O)N2C3CCC2CN(c2ncnc4[nH]ccc24)C3)c1 [Example 135, (3-Methanesulfonyl-phenyl)-[3-(7H-pyrrolo[2,3-d]pyrimidin-4-yl)-3,8-diaza-bicyclo[3.2.1]oct-8-yl]-methanone] |
| < 100 | < 100 | 100 to 500 | < 100 | O=C(c1cc2cc(F)ccc2[nH]1)N1C2CCC1CN(c1ncnc3[nH]ccc13)C2 [Example 136, (5-Fluoro-1H-indol-2-yl)-[3-(7H-pyrrolo[2,3-d]pyrimidin-4-yl)-3,8-diaza-bicyclo[3.2.1]oct-8-yl]-methanone] |
| < 100 | < 100 | > 500 | < 100 | Cc1ccc(C(=O)N2C3CCC2CN(c2ncnc4[nH]ccc24)C3)cc1S(N)(=O)=O [Example 138, 2-Methyl-5-[3-(7H-pyrrolo[2,3-d]pyrimidin-4-yl)-3,8-diaza-bicyclo[3.2.1]octane-8-carbonyl]-benzenesulfonamide] |
| < 100 | 100 to 500 | > 500 | < 100 | O=C(c1cc2c(s1)CCC2)N1C2CCC1CN(c1ncnc3[nH]ccc13)C2 [Example 139, (5,6-Dihydro-4H-cyclopenta[b]thiophen-2-yl)-[3-(7H-pyrrolo[2,3-d]pyrimidin-4-yl)-3,8-diaza-bicyclo[3.2.1]oct-8-yl]-methanone] |
| < 100 | < 100 | > 500 | < 100 | O=C(c1cc2cc(F)cc(F)c2[nH]1)N1C2CCC1CN(c1ncnc3[nH]ccc13)C2 [Example 140, (5,7-Difluoro-1H-indol-2-yl)-[3-(7H-pyrrolo[2,3-d]pyrimidin-4-yl)-3,8-diaza-bicyclo[3.2.1]oct-8-yl]-methanone] |
| < 100 | < 100 | > 500 | < 100 | Cn1c(C(=O)N2C3CCC2CN(c2ncnc4[nH]ccc24)C3)ccc1S(N)(=O)=O [Example 141, 1-Methyl-5-[3-(7H-pyrrolo[2,3-d]pyrimidin-4-yl)-3,8-diaza-bicyclo[3.2.1]octane-8-carbonyl]-1H-pyrrole-2-sulfonic acid amide] |
| < 100 | < 100 | 100 to 500 | < 100 | Cn1cc(S(N)(=O)=O)cc1C(=O)N1C2CCC1CN(c1ncnc3[nH]ccc13)C2 [Example 142, 1-Methyl-5-[3-(7H-pyrrolo[2,3-d]pyrimidin-4-yl)-3,8-diaza-bicyclo[3.2.1]octane-8-carbonyl]-1H-pyrrole-3-sulfonic acid amide] |
| < 100 | < 100 | > 500 | < 100 | NS(=O)(=O)CCCC(=O)N1CCN(c2ncnc3[nH]ccc23)CC12CC2 [Example 143, 4-Oxo-4-[7-(7H-pyrrolo[2,3-d]pyrimidin-4-yl)-4,7-diaza-spiro[2.5]oct-4-yl]-butane-1-sulfonic acid amide] |
| < 100 | > 500 | > 500 | 100 to 500 | O=C(C1CCOC1)N1C2CCC1CN(c1ncnc3[nH]ccc13)C2 (stereo not drawn) [Example 144, [3-(7H-Pyrrolo[2,3-d]pyrimidin-4-yl)-3,8-diaza-bicyclo[3.2.1]oct-8-yl]-(tetrahydro-furan-3-yl)-methanone] |
